Measured values: patent publication US11724992B2 (Novartis AG, priority 2017, dated 2023)
pIC50: −log10 of the molar value.

System: IL-1β production in PMA-differentiated THP-1 cells
Experiment: IL-1β production in PMA-differentiated THP-1 cells stimulated with gramicidin (hTHP-1 assay, 2% fetal bovine serum; Procedures 1-3)
Format: cell-based, human
Details: Homo sapiens, THP-1, hTHP-1 assay containing 2% fetal bovine serum; class symbols; read-out: hTHP-1 IC50 (Average IC50 of compounds in hTHP-1 assay)
Outline: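 PMA-differentiated (20 ng/ml, 16-18 h) THP-1 cells in RPMI with 2% FBS, 50,000 cells/well, preincubated 1 h with compound (final 100–0.0017 μM, 0.37% DMSO), then stimulated with 5 μM gramicidin for 2 h. Supernatant IL-1β measured by HTRF.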

| Structure (SMILES) | pIC50 |
| --- | --- |
| Cc1oc(S(N)(=O)=NC(=O)Nc2c3c(cc4c2CCC4C)CCC3)cc1C(C)(C)O (single isomer, unassigned) [Example 305, (R,S) or (R,R)-4-(2-hydroxypropan-2-yl)-5-methyl-N′-((3-methyl-1,2,3,5,6,7-hexahydro-s-indacen-4-yl)carbamoyl)furan-2-sulfonimidamide; resolved from example 123] | 7.40 to 8.10 |

Same assay, conditions: hTHP-1 assay containing 2% fetal bovine serum; class symbols; read-out: hTHP-1 IC50 (Average IC50 of compounds in hTHP-1 assay)

| Structure (SMILES) | pIC50 |
| --- | --- |
| CC(C)(O)c1cnc(S(N)(=O)=NC(=O)Nc2c3c(cc4c2CCC4)CCC3)s1 (single isomer, unassigned) [Example 297, (S) or (R)-N′-((1,2,3,5,6,7-hexahydro-s-indacen-4-yl)carbamoyl)-5-(2-hydroxypropan-2-yl)thiazole-2-sulfonimidamide] | 6.00 to 6.70 |
| CC(C)c1ccc(F)c(C(C)C)c1NC(=O)N=S(N)(=O)c1cnc(C(C)(C)O)s1 (single isomer, unassigned) [Example 298, (R) or (S)-N′-((3-fluoro-2,6-diisopropylphenyl)carbamoyl)-2-(2-hydroxypropan-2-yl)thiazole-5-sulfonimidamide] | 6.70 to 7.40 |
| CC(C)c1ccc(F)c(C(C)C)c1NC(=O)N=S(N)(=O)c1cnc(C(C)(C)O)s1 (single isomer, unassigned) [Example 299, (S) or (R)-N′-((3-fluoro-2,6-diisopropylphenyl)carbamoyl)-2-(2-hydroxypropan-2-yl)thiazole-5-sulfonimidamide] | 5.30 to 6.00 |
| CC(C)c1ccc(C#N)c(C(C)C)c1NC(=O)N=S(N)(=O)c1ccc(C(C)(C)O)s1 (single isomer, unassigned) [Example 300, (R) or (S)-N′-((3-cyano-2,6-diisopropylphenyl)carbamoyl)-5-(2-hydroxypropan-2-yl)thiophene-2-sulfonimidamide] | 6.00 to 6.70 |
| Cc1oc(S(N)(=O)=NC(=O)Nc2c3c(cc4c2C(C)CC4)CCC3)cc1C(C)(C)O (single isomer, unassigned) [Example 302, (R,R) or (R,S) or (S,S) or (S,R)-4-(2-hydroxypropan-2-yl)-5-methyl-N′-((3-methyl-1,2,3,5,6,7-hexahydro-s-indacen-4-yl)carbamoyl)furan-2-sulfonimidamide resolved from example 127] | 6.00 to 6.70 |
| Cc1oc(S(N)(=O)=NC(=O)Nc2c3c(cc4c2C(C)CC4)CCC3)cc1C(C)(C)O (single isomer, unassigned) [Example 303, (R,S) or (R,R) or (S,R) or (S,S)-4-(2-hydroxypropan-2-yl)-5-methyl-N′-((3-methyl-1,2,3,5,6,7-hexahydro-s-indacen-4-yl)carbamoyl)furan-2-sulfonimidamide resolved from example 127] | 7.40 to 8.10 |
| Cc1oc(S(N)(=O)=NC(=O)Nc2c3c(cc4c2CCC4C)CCC3)cc1C(C)(C)O (single isomer, unassigned) [Example 304, (R,R) or (R,S)-4-(2-hydroxypropan-2-yl)-5-methyl-N′-((3-methyl-1,2,3,5,6,7-hexahydro-s-indacen-4-yl)carbamoyl)furan-2-sulfonimidamide; resolved from example 123] | 6.70 to 7.40 |
| CC(C)(O)c1cc(S(N)(=O)=NC(=O)Nc2c3c(cc4c2CCC4)CCC3)nn1-c1ccccc1 (single isomer, unassigned) [Example 308, (S) or (R)-N′-((1,2,3,5,6,7-hexahydro-s-indacen-4-yl)carbamoyl)-5-(2-hydroxypropan-2-yl)-1-phenyl-1H-pyrazole-3-sulfonimidamide] | 5.30 to 6.00 |
| CC(C)(O)c1cc(S(N)(=O)=NC(=O)Nc2c3c(cc4c2CCC4)CCC3)nn1-c1ccccc1 (single isomer, unassigned) [Example 309, (R) or (S)-N′-((1,2,3,5,6,7-hexahydro-s-indacen-4-yl)carbamoyl)-5-(2-hydroxypropan-2-yl)-1-phenyl-1H-pyrazole-3-sulfonimidamide] | 6.70 to 7.40 |
| CC(C)(O)c1csc(S(N)(=O)=NC(=O)Nc2c3c(c(F)c4c2CCC4)CCC3)n1 (single isomer, unassigned) [Example 310, (R) or (S)-N′-((8-fluoro-1,2,3,5,6,7-hexahydro-s-indacen-4-yl)carbamoyl)-4-(2-hydroxypropan-2-yl)thiazole-2-sulfonimidamide] | 7.40 to 8.10 |
| CC(C)(O)c1csc(S(N)(=O)=NC(=O)Nc2c3c(c(F)c4c2CCC4)CCC3)n1 (single isomer, unassigned) [Example 311, (S) or (R)-N′-((8-fluoro-1,2,3,5,6,7-hexahydro-s-indacen-4-yl)carbamoyl)-4-(2-hydroxypropan-2-yl)thiazole-2-sulfonimidamide] | 6.00 to 6.70 |
| CNCc1ccc(S(N)(=O)=NC(=O)Nc2c3c(cc4c2CCC4)CCC3)cc1 (single isomer, unassigned) [Example 314, (S) or (R)-N′-((1,2,3,5,6,7-hexahydro-s-indacen-4-yl)carbamoyl)-4-((methylamino)methyl)benzenesulfonimidamide] | 6.00 to 6.70 |
| CNCc1ccc(S(N)(=O)=NC(=O)Nc2c3c(cc4c2CCC4)CCC3)cc1 (single isomer, unassigned) [Example 315, (R) or (S)-N′-((1,2,3,5,6,7-hexahydro-s-indacen-4-yl)carbamoyl)-4-((methylamino)methyl)benzenesulfonimidamide] | 4.52 to 5.30 |
| CC(C)c1cc(C#N)c(F)c(C(C)C)c1NC(=O)N=S(N)(=O)c1cnc(C(C)(O)CO)s1 (single isomer, unassigned) [Example 316, Two isomers of (R,R) or (R,S) or (S,S) or (S,R)-N′-((4-cyano-3-fluoro-2,6-diisopropylphenyl)carbamoyl)-2-(1,2-dihydroxypropan-2-yl)thiazole-5-sulfonimidamide] | 6.00 to 6.70 |
| CC(C)c1cc(C#N)c(F)c(C(C)C)c1NC(=O)N=S(N)(=O)c1cnc(C(C)(O)CO)s1 (single isomer, unassigned) [Example 317, (R,R) or (R,S) or (S,S) or (S,R)-N-((4-cyano-3-fluoro-2,6-diisopropylphenyl)carbamoyl)-2-(1,2-dihydroxypropan-2-yl)thiazole-5-sulfonimidamide] | 5.30 to 6.00 |
| CC(C)c1cc(C#N)c(F)c(C(C)C)c1NC(=O)N=S(N)(=O)c1cnc(C(C)(O)CO)s1 (single isomer, unassigned) [Example 318, (S,S) or (S,R) or (R,R) or (R,S)-N-((4-cyano-3-fluoro-2,6-diisopropylphenyl)carbamoyl)-2-(1,2-dihydroxypropan-2-yl)thiazole-5-sulfonimidamide] | 6.00 to 6.70 |
| CC(C)(O)c1ccc(S(N)(=O)=NC(=O)Nc2c3c(cc4c2CCC4)CCC3)cn1 (single isomer, unassigned) [Example 319, (S) or (R)-N′-((1,2,3,5,6,7-hexahydro-s-indacen-4-yl)carbamoyl)-6-(2-hydroxypropan-2-yl)pyridine-3-sulfonimidamide] | 5.30 to 6.00 |
| CC(C)(O)c1ccc(S(N)(=O)=NC(=O)Nc2c3c(cc4c2CCC4)CCC3)cn1 (single isomer, unassigned) [Example 320, (R) or (S)-N′-((1,2,3,5,6,7-hexahydro-s-indacen-4-yl)carbamoyl)-6-(2-hydroxypropan-2-yl)pyridine-3-sulfonimidamide] | 6.70 to 7.40 |
| CC1CCc2c1cc1c(c2NC(=O)N=S(N)(=O)c2cnc(C(C)(C)O)s2)CCC1 (single isomer, unassigned) [Example 321, (S,S) or (S,R)-2-(2-hydroxypropan-2-yl)-N′-((1-methyl-1,2,3,5,6,7-hexahydro-s-indacen-4-yl)carbamoyl)thiazole-5-sulfonimidamide (from Example 291)] | 5.30 to 6.00 |
| CC1CCc2c1cc1c(c2NC(=O)N=S(N)(=O)c2cnc(C(C)(C)O)s2)CCC1 (single isomer, unassigned) [Example 322, (S,R) or (S,S)-2-(2-hydroxypropan-2-yl)-N′-((1-methyl-1,2,3,5,6,7-hexahydro-s-indacen-4-yl)carbamoyl)thiazole-5-sulfonimidamide (from Example 291)] | 6.00 to 6.70 |
| CC1CCc2c1cc1c(c2NC(=O)N=S(N)(=O)c2cnc(C(C)(C)O)s2)CCC1 (single isomer, unassigned) [Example 323, (R,R) or (R,S)-2-(2-hydroxypropan-2-yl)-N′-((1-methyl-1,2,3,5,6,7-hexahydro-s-indacen-4-yl)carbamoyl)thiazole-5-sulfonimidamide (from Example 291)] | 6.70 to 7.40 |
| CC1CCc2c1cc1c(c2NC(=O)N=S(N)(=O)c2cnc(C(C)(C)O)s2)CCC1 (single isomer, unassigned) [Example 324, (R,S) or (R,R)-2-(2-hydroxypropan-2-yl)-N′-((1-methyl-1,2,3,5,6,7-hexahydro-s-indacen-4-yl)carbamoyl)thiazole-5-sulfonimidamide (from Example 291)] | 7.40 to 8.10 |
| CC1CCc2cc3c(c(NC(=O)N=S(N)(=O)c4cnc(C(C)(C)O)s4)c21)CCC3 (single isomer, unassigned) [Example 331, (S,S) or (S,R)-2-(2-hydroxypropan-2-yl)-N′-((3-methyl-1,2,3,5,6,7-hexahydro-s-indacen-4-yl)carbamoyl)thiazole-5-sulfonimidamide] | 4.52 to 5.30 |
